Earlier results in patent US20190343122A1, “IMPROVED INSECT CONTROL STRATEGIES UTILIZING PHEROMONES AND RNAI” (Provivi, Inc., priority 2016, published 2019).

Legend:
E. heros = details: female E. heros
aphids = details: in vivo
target genes of pests = details: Noctuidae Spodoptera exigua

In the case of `O=Cc1ccccc1` [benzaldehyde], the “attractiveness of an oviposition substrate” value (mated H. armigera) is given as “significantly increase the attractiveness”.

For `CCCC(C)CCCC(C)CCCC(C)C(=O)OC` (centres unmarked) [TMTD, methyl 2,6,10-trimethyltridecanoate], the attraction to lures (E. heros) is given as “attracted”.

For `CCCCCCC=O` [Heptanal], the “attractiveness of an oviposition substrate” value (mated H. armigera) is listed as “significantly increase the attractiveness”.

In the case of `CNC(=O)Oc1cccc2ccccc12` [Sevin, carbaryl], the effectiveness against aphids (aphids) is listed as “not effective against many aphids”.

For PGCP, the Larval mortality (target genes of pests) is given as “Larval mortality increased”.
